This is an account of results in paper PMC11842588, “A first-in-class selective inhibitor of ERK1/2 and ERK5 overcomes drug resistance with a single-molecule strategy” (Signal Transduction and Targeted Therapy, 2025).

Each structure is given as a SMILES string.

One series addresses ERK1 (Homo sapiens, UniProt P27361). The series can be described thus: ADP-Glo kinase assay. Format: biochemical. Background: ADP-Glo first removes unused ATP, then detects ADP through luciferase.
For another series, the target named is ERK2 (Homo sapiens, UniProt P28482). The series can be described thus: ADP-Glo kinase assay. It is filed as biochemical.
Chain of ERK2 (P28482 whole entry): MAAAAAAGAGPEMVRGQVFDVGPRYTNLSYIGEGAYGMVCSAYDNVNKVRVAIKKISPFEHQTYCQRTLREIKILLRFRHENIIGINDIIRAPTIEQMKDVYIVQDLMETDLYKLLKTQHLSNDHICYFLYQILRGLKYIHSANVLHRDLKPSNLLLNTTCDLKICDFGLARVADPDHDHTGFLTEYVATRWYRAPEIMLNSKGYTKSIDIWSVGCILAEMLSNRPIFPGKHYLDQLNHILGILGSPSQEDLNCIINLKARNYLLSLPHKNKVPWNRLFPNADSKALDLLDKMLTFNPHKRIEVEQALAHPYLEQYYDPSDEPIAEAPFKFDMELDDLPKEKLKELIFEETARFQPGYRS
For series [1], the target named is T1, ERK5 (Homo sapiens, UniProt Q13164). Nature of the series: ADP-Glo kinase assay. It is filed as biochemical.
Target sequence in this assay (Q13164 whole entry): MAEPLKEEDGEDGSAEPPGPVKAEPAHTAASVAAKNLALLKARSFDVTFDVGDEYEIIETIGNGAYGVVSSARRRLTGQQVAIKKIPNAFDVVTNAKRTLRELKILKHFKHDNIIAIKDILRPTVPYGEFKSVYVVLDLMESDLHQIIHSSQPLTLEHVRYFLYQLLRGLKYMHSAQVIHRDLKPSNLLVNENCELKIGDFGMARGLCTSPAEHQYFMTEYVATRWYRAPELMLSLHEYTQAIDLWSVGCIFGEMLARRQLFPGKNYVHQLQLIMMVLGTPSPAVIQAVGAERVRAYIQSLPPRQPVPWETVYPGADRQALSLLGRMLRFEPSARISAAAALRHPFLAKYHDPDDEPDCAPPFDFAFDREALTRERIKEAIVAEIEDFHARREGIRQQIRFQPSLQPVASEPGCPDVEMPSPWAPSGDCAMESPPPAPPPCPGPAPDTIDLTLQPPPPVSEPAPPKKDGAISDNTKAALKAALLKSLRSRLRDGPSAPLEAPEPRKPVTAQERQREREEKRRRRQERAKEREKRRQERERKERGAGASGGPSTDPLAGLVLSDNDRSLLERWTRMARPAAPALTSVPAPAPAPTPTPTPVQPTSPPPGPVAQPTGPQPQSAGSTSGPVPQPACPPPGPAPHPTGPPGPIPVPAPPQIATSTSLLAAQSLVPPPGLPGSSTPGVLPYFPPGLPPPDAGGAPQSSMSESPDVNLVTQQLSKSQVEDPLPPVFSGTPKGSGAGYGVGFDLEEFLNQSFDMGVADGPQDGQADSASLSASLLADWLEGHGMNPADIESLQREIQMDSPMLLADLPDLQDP
Series [2] is described as follows: Plasma protein binding rate (ultrafiltration). It is filed as in vitro ADME. The settings on record: SD rat plasma. As to the method: Appropriate amount of SD rat plasma was taken and incubated with the specified concentration of compound at 37 °C for a specified time, and unbound compound solution was obtained by ultrafiltration method, and acetonitrile-containing internal standard compound was added to terminate the reaction, and the remaining compound was quantized by LC-MS to calculate the plasma protein binding rate. Calculation formula: Plasma protein binding rate (%) = (Total blood−Ultrafiltrate)/Total blood * 100%.

The next series concerns 380 kinases. The series can be described thus: Kinase profiling, whole panel. Format: biochemical, human. The settings on record: 1 µM, panel of 380 kinases. The procedure:
380 kinases inhibitory activities of SKLB-D18 were conducted by Eurofins Cerep SA. The result was illustrated by kinase tree (http://www.kinhub.org/kinmap/).

The test system of the next series is ERK1/2 and ERK5. Nature of the series: Cellular thermal shift assay (CETSA). It is filed as cell-based. The settings on record: 2 μM, MDA-MB-231 and MDA-MB-468 cells, 37–62 °C. The procedure: Cells were collected by trypsin and then resuspended in PBS. Following heating at the indicated temperatures (37, 42, 47, 52, 57, and 62 °C) for 3 min, cell suspensions were lysed by three freeze−thaw cycles with liquid nitrogen and thawed at room temperature. The lysates were separated by centrifugation at 17,000 × g for 20 min. The supernatants were collected and prepared for Immunoblotting to detect the stability of ERK1/2 and ERK5.

Series [3] is described as follows: Body weight and adverse effects in xenograft study. Format: in vivo, nude mice (BALB/c-nu). The settings on record: 25 and 50 mg/kg orally daily for 16 days. As to the method:
All procedures were performed in accordance with the Laboratory Animals Welfare Act, the Guide for the Care and Use of Laboratory Animals and the Guidelines and Policies. The rodent experiment was approved by IACUC (Institutional Animal Care and Use Committee) in the Experimental Animal Ethics Committee of West China Hospital (Approval No. 2021672A). 48 female nude mice (BALB/c-nu, 5 weeks, 15–18 g, purchased from Beijing HFK Bio-Technology Co., LTD) were acclimatized for one week in an SPF-grade animal facility (ventilated, 20–25 °C, 50–60% humidity). […] When the tumor volume reached approximately 100 mm^3 (V = L × W^2/2), the mice were randomly divided into six groups (n = 8 per group): (1) Control group (normal saline); (2) 25 mg/kg SKLB-D18-treated group; (3) 50 mg/kg SKLB-D18-treated group; (4) 50 mg/kg BVD-523-treated group; (5) 50 mg/kg XMD8-92-treated group; (6) BVD-523 (50 mg/kg) and XMD8-92 (50 mg/kg) combined treatment group. Drugs were freshly prepared with 5% DMSO, 10% Solutol HS-15, and 85% normal saline on the day of administration. Intragastric administration occurred once daily at the same time for 16 consecutive days. And the body weight and tumor volume of mice were measured every three days. After the administration period, all nude mice were euthanized by cervical dislocation the next day. […]

Series [4] deals with T1, ERK5. The series can be described thus: Isothermal titration calorimetry (ITC) assay. It is filed as binding. The settings on record: 25 °C. Set-up: ERK5 (residues 48–395) containing His and GST tags was cloned into the pFastBac vector; His (cleaved yes); GST (cleaved yes); made in house; host or cells: Sf9 insect cells (baculovirus). The procedure:
The full-length human ERK1 or ERK2 with His-tag was cloned into a pET28a vector. hERK1/2 were expressed in Escherichia coli BL21(DE3), and then were purified using sequential Ni-NTA and Superdex 200 column steps. The SEC purified sample was then concentrated to 10 mg/ml and stored at −80 °C with buffer containing 20 mM HEPES pH 7.5, 150 mM NaCl. ERK5 (residues 48–395) containing His and GST tags was cloned into the pFastBac vector, and the recombinant plasmid was extracted. The recombinant plasmid was transformed into the DH10bac strain, and monoclonal was selected for culture. The recombinant Bacmid was then extracted according to the instructions of the Baculovirus Shuttle Vector Bacmid Mini Preparation Kit (Beyotime) and validated by PCR. 1 × 10^6/well Sf9 cells were counted for transfection and then amplified to obtain P3 ERK5 recombinant baculovirus. It was added to 2 × 10^6/mL Sf9 cells and incubated at 27 °C for 72 h on a shaker to express ERK5. Cells were lysed and supernatant was collected on a Ni-NTA for purification, and a 250 mM imidazole eluate was collected. […]
Calorimetric experiments were carried on an Affinity ITC (Waters, Shanghai) with 1 mM SKLB-D18 and 0.1 mM ERK1/2/5. […] The data were analyzed with the NanoAnalyze software employing a single binding site model. […]
Target sequence in this assay (Q13164 48-395): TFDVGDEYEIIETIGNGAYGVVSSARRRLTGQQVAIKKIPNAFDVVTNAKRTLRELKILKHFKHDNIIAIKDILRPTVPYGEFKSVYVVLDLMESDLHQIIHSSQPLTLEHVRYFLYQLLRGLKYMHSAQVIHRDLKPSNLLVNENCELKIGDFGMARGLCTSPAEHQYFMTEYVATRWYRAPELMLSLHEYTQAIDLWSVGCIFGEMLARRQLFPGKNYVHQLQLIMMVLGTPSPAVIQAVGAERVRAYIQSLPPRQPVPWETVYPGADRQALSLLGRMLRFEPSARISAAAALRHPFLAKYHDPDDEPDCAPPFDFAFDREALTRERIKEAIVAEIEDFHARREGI
(ITC needs no label: the signal is the heat of the interaction.)

Chain of ERK1 (P27361 whole entry): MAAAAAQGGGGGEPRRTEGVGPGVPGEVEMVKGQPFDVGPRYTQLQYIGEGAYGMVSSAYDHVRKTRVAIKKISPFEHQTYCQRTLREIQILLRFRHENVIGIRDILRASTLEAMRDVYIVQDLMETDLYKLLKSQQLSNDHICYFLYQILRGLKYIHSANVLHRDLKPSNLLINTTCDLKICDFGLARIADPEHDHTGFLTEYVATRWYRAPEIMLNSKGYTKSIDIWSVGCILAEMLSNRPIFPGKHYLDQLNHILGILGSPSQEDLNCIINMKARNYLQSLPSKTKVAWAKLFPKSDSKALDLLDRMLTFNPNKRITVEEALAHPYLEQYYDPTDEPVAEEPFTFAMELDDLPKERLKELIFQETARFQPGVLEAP

Take `CN(C)Cc1cccc(Nc2ncc(Cl)c(-c3csc(C(=O)NN4CCOCC4)c3)n2)c1` [SKLB-D18, 4-(5-chloro-2-((3-((dimethylamino)methyl)phenyl)amino)pyrimidin-4-yl)-N-morpholinothiophene-2-carboxamide]: the IC50 (usually the point on the concentration scale where inhibition reaches its midpoint) against ERK1 (ADP-Glo) was determined as 38.7 ± 0.62 nM; on ERK2 (ADP-Glo) it was 40.1 ± 0.95 nM; against ERK5 [1] (ADP-Glo), 59.7 ± 1.21 nM. Besides, the inhibition at 0.5 µM on ERK1 (read-out: Enzyme inhibitory activity (500 nM, %) ERK1) turned out to be 95.62 ± 0.84%; on ERK2 (read-out: Enzyme inhibitory activity (500 nM, %) ERK2), 93.2 ± 1.45%; at ERK5 [1] (read-out: Enzyme inhibitory activity (500 nM, %) ERK5), 93.1 ± 1.03%. For the same compound, in series [2], the fraction unbound – broadly, the share of the substance not bound to proteins or other matrix – was 0.816. In the series on 380 kinases, the “number of protein kinases outside of ERK1/2/5 inhibited by >70%” value amounted to 8. Also, the “thermal shift of ERK5 and ERK1/2 proteins (CETSA)” value with ERK1/2 and ERK5 is on record as “increasing thermal shift”. The “weight loss or adverse effects” value in series [3] is “No significant weight loss or adverse effects”. In addition, at ERK5 [4], the Kd (commonly the equilibrium constant for the complex coming apart) turned out to be 468 nM.
